# Measured values from PMC9103184, “Kunitz-Type Peptides from Sea Anemones Protect Neuronal Cells against Parkinson’s Disease Inductors via Inhibition of ROS Production and ATP-Induced P2X7 Receptor Activation” (International Journal of Molecular Sciences, 2022).
# Bridge positions count the residues as written; N and C are the ends. Ends that are not written are not given here.
# Legend:
# [1] = molecular target: T1, trypsin (Bos taurus, UniProt P00760); assay: Trypsin inhibition (BAPNA substrate, Dixon's method); format: biochemical; settings: BAPNA 0.6 and 1.2 mM, trypsin 208 nM, peptide 0–20 μM, three parallel experiments, read-out: trypsin inhibitory constant (Ki)
# T1 sequence (P00760 24-246): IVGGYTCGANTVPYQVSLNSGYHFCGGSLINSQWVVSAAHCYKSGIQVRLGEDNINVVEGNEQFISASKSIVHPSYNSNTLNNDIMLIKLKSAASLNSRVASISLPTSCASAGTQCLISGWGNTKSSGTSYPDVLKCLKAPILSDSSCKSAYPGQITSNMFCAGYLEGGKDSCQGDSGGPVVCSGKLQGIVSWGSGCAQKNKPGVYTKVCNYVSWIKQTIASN
# Description: The trypsin-inhibitory activity of HCIQ1c9 was estimated according to the standard procedure using N-α-benzoyl-D,L-arginine p-nitroanilide (BAPNA) (Sigma-Aldrich, St. Louis, MO, USA) as a substrate. The trypsin inhibition constant was determined using Dyxon’s method using substrate concentrations of 0.6 and 1.2 mM. The trypsin concentration was 208 nM. The range of peptide concentrations was 0–20 μM. The constant was calculated based on the results of three parallel experiments. Computational error limits were in the range of 0.1–0.3%.
# [2] = molecular target: T1, trypsin; assay: Residual trypsin-inhibitory activity after heating; format: biochemical; settings: heating in the range from 60 °C to 100 °C; 7 μM peptide, 1.2 mM BAPNA, 37 °C, three parallel experiments
# Description: Figure 6 The effects of temperature on the trypsin-inhibitory activity levels of peptides. Peptides were incubated at the temperatures for 30 min and their residual activities were measured.
# The temperature influence on the activity levels of peptides was assessed by measuring their residual inhibitory activity levels. After preincubation at temperatures ranging from 25 to 100 °C for 25 min, the peptide solutions were added to trypsin solution and the reaction mixtures were incubated for 10 min at 37 °C, then 1.2 mM BAPNA was added, followed by incubation at 37 °C for 30 min. The final concentration of the peptides was 7 μM. Substrate hydrolysis was measured at 410 nm. The residual activity was calculated based on the results of three parallel experiments according to the following equation [60]:% = (1 − residual enzyme activity/enzyme activity without inhibitor) × 100
# [3] = tested on: 6-OHDA-treated cells; settings: 6-OHDA model; cited from earlier work
# [4] = tested on: TRPV1; settings: cited from earlier work
Substance,Ki [1],decrease in trypsin-inhibitory activity after heating [2],decrease in ROS production below the control [3],activity on TRPV1 [4]
"IQGNICSEPKKVGRCRRSFPRFYFDSETGKCTPFIYGGCGGNGNNFETLHACRAICRA (disulfide 6-56, 15-39, 31-52) [HCIQ1c9]",630 nM,30–70%,,
"HCRG21: Kunitz-type peptide from H. crispa, P0DL86; blocker of TRPV1 (RGICSEPKVVGPCTAYFRRFYFDSETGKCTPFIYGGCEGNGNNFETLRACRAICRA; UniProt P0DL86 1-56, looked up)",,,up to 87%,blocker of TRPV1
